Laboratory results from article PMC7689923 (ACS Omega, 2020).
Converted amounts (≈) assume the structure as drawn. “And” between values parts separate entries of the source, which are not always exact repeats. Equal entries are not always repeated.

What was measured:
[1] = target: T1, KasA (Mycobacterium tuberculosis, UniProt P9WQD9); test: biochemical; format: binding; settings: for KasA binding via MST (in words): at the concentrations tested
T1 sequence (P9WQD9 1-416): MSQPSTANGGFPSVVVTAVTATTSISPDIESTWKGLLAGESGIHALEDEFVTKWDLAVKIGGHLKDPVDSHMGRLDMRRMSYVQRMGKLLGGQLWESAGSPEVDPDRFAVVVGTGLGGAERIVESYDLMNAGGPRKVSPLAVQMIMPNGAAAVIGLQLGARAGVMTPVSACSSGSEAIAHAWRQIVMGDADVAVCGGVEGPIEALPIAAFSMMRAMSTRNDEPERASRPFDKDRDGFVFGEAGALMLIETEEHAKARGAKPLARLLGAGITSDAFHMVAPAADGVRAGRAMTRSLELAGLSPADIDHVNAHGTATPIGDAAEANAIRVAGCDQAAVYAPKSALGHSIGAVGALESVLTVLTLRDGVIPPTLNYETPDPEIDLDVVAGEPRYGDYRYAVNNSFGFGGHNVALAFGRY

[2] = tested on: Mtb; settings: cited from earlier work
[3] = target: T1, KasA; settings: binder of KasA; cited from earlier work
[4] = target: T1, KasA; test: Thermal shift experiments using nanoDSF; format: binding

SMILES	Kd [1]	MIC ([2]; Mtb inhibitor) [µM]	minimum inhibitor concentration (MIC) [2] [M]	EC50 [3] [µM]	change in Tm (in words) [4]	KasA binding via MST (in words) [1]
CCCc1nn(C)c2c(=O)[nH]c(-c3cc(S(=O)(=O)N4CCN(C)CC4)ccc3OCC)nc12 [Sildenafil, sildenafil]	32.5 µM and 30 to 40 µM	–	–	–	–	–
Oc1cc(Cl)ccc1Oc1ccc(Cl)cc1Cl [Triclosan, triclosan]	–	12.5 (≈ 3.62 µg/mL)	–	–	–	–
CCCCS(=O)(=O)Nc1ccc2cnn(C)c2c1 [DG167]	–	–	0.39	0.131 ± 0.0182	–	–
CCCNC(=O)NS(=O)(=O)c1ccc(Cl)cc1 [Chlorpropamide]	90.6 µM and > 90 µM	–	–	–	did not show significant changes in Tm	showed binding to KasA
COC(=O)Nc1nc2cc(C(=O)c3ccc(F)cc3)ccc2[nH]1 [Flubendazole, flubendazole]	38.5 µM and 30 to 40 µM	–	–	–	did not show significant changes in Tm	showed binding to KasA
CC[C@H](C)C(=O)O[C@H]1C[C@@H](C)C=C2C=C[C@H](C)[C@H](CC[C@@H]3C[C@@H](O)CC(=O)O3)[C@H]21 [Lovastatin, lovastatin]	224 µM and > 90 µM	–	–	–	did not show significant changes in Tm	showed binding to KasA
